Laboratory results as given in the supplement of paper PMC10307832.

Tests used:
Experiment in all cases: relative viability (nuclei count vs DMSO), 5 days (fraction); higher = more cells survive
17-AAG + Palbociclib = compound: C=CCNC1=C2C[C@@H](C)C[C@H](OC)[C@H](O)[C@@H](C)/C=C(\C)[C@H](OC(N)=O)[C@@H](OC)/C=C\C=C(/C)C(=O)NC(=CC1=O)C2=O [17-AAG] + CC(=O)c1c(C)c2cnc(Nc3ccc(N4CCNCC4)cn3)nc2n(C2CCCC2)c1=O [Palbociclib] (partner 0.5 µM)
In short: (§1)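 After 5 days of treatment, lung cancer cells in 1536-well plates were fixed and stained in a single step (final 0.05% Triton X-100, 1% formaldehyde, 1 ug/ml Hoechst) and their nuclei counted on 4× images. Treatment had been applied by pin tool the day after seeding as one drug alone or as a fixed anchor-drug dose with five library-drug doses (not always all listed) in √10 steps. Relative viability is the nuclei count of treated wells divided by that of vehicle wells, and values are medians of duplicate plates.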

17-AAG + Pictilisib = compound: C=CCNC1=C2C[C@@H](C)C[C@H](OC)[C@H](O)[C@@H](C)/C=C(\C)[C@H](OC(N)=O)[C@@H](OC)/C=C\C=C(/C)C(=O)NC(=CC1=O)C2=O [17-AAG] + CS(=O)(=O)N1CCN(Cc2cc3nc(-c4cccc5[nH]ncc45)nc(N4CCOCC4)c3s2)CC1 [Pictilisib] (partner 1 µM)
In short: as §1

17-AAG + OSI-027 = compound: C=CCNC1=C2C[C@@H](C)C[C@H](OC)[C@H](O)[C@@H](C)/C=C(\C)[C@H](OC(N)=O)[C@@H](OC)/C=C\C=C(/C)C(=O)NC(=CC1=O)C2=O [17-AAG] + COc1cccc2cc(-c3nc([C@H]4CC[C@H](C(=O)O)CC4)n4ncnc(N)c34)[nH]c12 [OSI-027] (partner 0.5 µM)
In short: as §1

17-AAG + Luminespib = compound: C=CCNC1=C2C[C@@H](C)C[C@H](OC)[C@H](O)[C@@H](C)/C=C(\C)[C@H](OC(N)=O)[C@@H](OC)/C=C\C=C(/C)C(=O)NC(=CC1=O)C2=O [17-AAG] + CCNC(=O)c1noc(-c2cc(C(C)C)c(O)cc2O)c1-c1ccc(CN2CCOCC2)cc1 [Luminespib] (partner 0.01 µM)
In short: as §1

NCI-H1915
relative viability (17-AAG + Palbociclib; first compound 0.00128 µM): 0.533
relative viability (17-AAG + Palbociclib; first compound 0.004048 µM): 0.503
relative viability (17-AAG + Palbociclib; first compound 0.0128 µM): 0.471
relative viability (17-AAG + Palbociclib; first compound 0.04048 µM): 0.253
relative viability (17-AAG + Palbociclib; first compound 0.128 µM): 0.0774
relative viability (17-AAG + Pictilisib; first compound 0.00128 µM): 0.848
relative viability (17-AAG + Pictilisib; first compound 0.004048 µM): 0.992
relative viability (17-AAG + Pictilisib; first compound 0.0128 µM): 0.832
relative viability (17-AAG + Pictilisib; first compound 0.04048 µM): 0.207
relative viability (17-AAG + Pictilisib; first compound 0.128 µM): 0.0693
relative viability (17-AAG + OSI-027; first compound 0.00128 µM): 0.606
relative viability (17-AAG + OSI-027; first compound 0.004048 µM): 0.605
relative viability (17-AAG + OSI-027; first compound 0.0128 µM): 0.482
relative viability (17-AAG + OSI-027; first compound 0.04048 µM): 0.088
relative viability (17-AAG + OSI-027; first compound 0.128 µM): 0.0931
relative viability (17-AAG + Luminespib; first compound 0.00128 µM): 0.682
relative viability (17-AAG + Luminespib; first compound 0.004048 µM): 0.659
relative viability (17-AAG + Luminespib; first compound 0.0128 µM): 0.548
relative viability (17-AAG + Luminespib; first compound 0.04048 µM): 0.418
relative viability (17-AAG + Luminespib; first compound 0.128 µM): 0.0942

NCI-H2009
relative viability (17-AAG + Palbociclib; first compound 0.00128 µM): 0.22
relative viability (17-AAG + Palbociclib; first compound 0.004048 µM): 0.254
relative viability (17-AAG + Palbociclib; first compound 0.0128 µM): 0.258
relative viability (17-AAG + Palbociclib; first compound 0.04048 µM): 0.203
relative viability (17-AAG + Palbociclib; first compound 0.128 µM): 0.0584
relative viability (17-AAG + Pictilisib; first compound 0.00128 µM): 0.744
relative viability (17-AAG + Pictilisib; first compound 0.004048 µM): 0.829
relative viability (17-AAG + Pictilisib; first compound 0.0128 µM): 0.744
relative viability (17-AAG + Pictilisib; first compound 0.04048 µM): 0.277
relative viability (17-AAG + Pictilisib; first compound 0.128 µM): 0.091
relative viability (17-AAG + OSI-027; first compound 0.00128 µM): 0.635
relative viability (17-AAG + OSI-027; first compound 0.004048 µM): 0.654
relative viability (17-AAG + OSI-027; first compound 0.0128 µM): 0.618
relative viability (17-AAG + OSI-027; first compound 0.04048 µM): 0.376
relative viability (17-AAG + OSI-027; first compound 0.128 µM): 0.0937
relative viability (17-AAG + Luminespib; first compound 0.00128 µM): 0.983
relative viability (17-AAG + Luminespib; first compound 0.004048 µM): 0.983
relative viability (17-AAG + Luminespib; first compound 0.0128 µM): 0.871
relative viability (17-AAG + Luminespib; first compound 0.04048 µM): 0.354
relative viability (17-AAG + Luminespib; first compound 0.128 µM): 0.0842

BEN
relative viability (17-AAG + Palbociclib; first compound 0.00128 µM): 0.466
relative viability (17-AAG + Palbociclib; first compound 0.004048 µM): 0.484
relative viability (17-AAG + Palbociclib; first compound 0.0128 µM): 0.54
relative viability (17-AAG + Palbociclib; first compound 0.04048 µM): 0.491
relative viability (17-AAG + Palbociclib; first compound 0.128 µM): 0.337
relative viability (17-AAG + Pictilisib; first compound 0.00128 µM): 0.569
relative viability (17-AAG + Pictilisib; first compound 0.004048 µM): 0.72
relative viability (17-AAG + Pictilisib; first compound 0.0128 µM): 0.656
relative viability (17-AAG + Pictilisib; first compound 0.04048 µM): 0.346
relative viability (17-AAG + Pictilisib; first compound 0.128 µM): 0.183
relative viability (17-AAG + OSI-027; first compound 0.00128 µM): 0.337
relative viability (17-AAG + OSI-027; first compound 0.004048 µM): 0.307
relative viability (17-AAG + OSI-027; first compound 0.0128 µM): 0.256
relative viability (17-AAG + OSI-027; first compound 0.04048 µM): 0.232
relative viability (17-AAG + OSI-027; first compound 0.128 µM): 0.2
relative viability (17-AAG + Luminespib; first compound 0.00128 µM): 0.33
relative viability (17-AAG + Luminespib; first compound 0.004048 µM): 0.408
relative viability (17-AAG + Luminespib; first compound 0.0128 µM): 0.206
relative viability (17-AAG + Luminespib; first compound 0.04048 µM): 0.241
relative viability (17-AAG + Luminespib; first compound 0.128 µM): 0.194

PC-3 [JPC-3]
relative viability (17-AAG + Palbociclib; first compound 0.00128 µM): 0.575
relative viability (17-AAG + Palbociclib; first compound 0.004048 µM): 0.57
relative viability (17-AAG + Palbociclib; first compound 0.0128 µM): 0.551
relative viability (17-AAG + Palbociclib; first compound 0.04048 µM): 0.463
relative viability (17-AAG + Palbociclib; first compound 0.128 µM): 0.528
relative viability (17-AAG + Pictilisib; first compound 0.00128 µM): 0.795
relative viability (17-AAG + Pictilisib; first compound 0.004048 µM): 0.791
relative viability (17-AAG + Pictilisib; first compound 0.0128 µM): 0.727
relative viability (17-AAG + Pictilisib; first compound 0.128 µM): 0.586
relative viability (17-AAG + OSI-027; first compound 0.00128 µM): 0.729
relative viability (17-AAG + OSI-027; first compound 0.004048 µM): 0.787
relative viability (17-AAG + OSI-027; first compound 0.0128 µM): 0.851
relative viability (17-AAG + OSI-027; first compound 0.128 µM): 0.653
relative viability (17-AAG + Luminespib; first compound 0.00128 µM): 0.766
relative viability (17-AAG + Luminespib; first compound 0.004048 µM): 0.723
relative viability (17-AAG + Luminespib; first compound 0.0128 µM): 0.71
relative viability (17-AAG + Luminespib; first compound 0.128 µM): 0.538
